# From patent US9290551B2, “Compounds for treating papilloma virus infection” (NanoVir, LLC, priority 2012, dated 2016)
# Tested on: HPV 16
# Assay: HPV 16 episome DNA levels in W12E cells by Q-PCR (Taqman)
# Format: cell-based, Human papilloma virus
# Details: not given
# Method: Cells maintaining HPV 16 DNA were cultured for 72 hours in the presence of cidofovir, interferon γ or polyamide. Viral DNA was then quantified using real-time PCR and compared to vehicle (DMSO)-treated control cultures.
# Compounds were initially tested for effects on HPV 16 episome DNA levels in W12E cells by Q-PCR (Taqman™) over 3 concentration ranges (0.1, 1 and 10 μM). W12E cells are a cervical keratinocyte cell line originally identified by M. Stanley (Cambridge University), and later optimized and provided by P. Lambert (U. of Wisconsin). […] In all cases (initial tests and follow-up IC50 tests), dose testing was performed in triplicate. […] Furthermore, all experiments were conducted in triplicate, multiple times. The data were then combined, pseudo or effective IC50 values calculated, and variance determined to reveal the fit of the data to the model and its reliability.
# Keratinocytes that maintain HPV 16 episomes were treated with increasing concentrations of polyamides.
row,Compound,antiviral activity in this study
1,"CN(CCCN)CCCNC(=O)CCNC(=O)c1cc(NC(=O)c2cc(NC(=O)c3cc(NC(=O)c4cc(NC(=O)c5cc(NC(=O)[C@H](N)CCNC(=O)c6cc(NC(=O)c7cc(NC(=O)c8cc(NC(=O)c9cc(NC(=O)c%10nccn%10C)cn9C)cn8C)cn7C)cn6C)cn5C)cn4C)cn3C)cn2C)cn1C [Polyamide 1006, ImPPPPγNH2PPPPPβTa]",inactive

# Same assay, conditions: effective (pseudo) IC50; 50% reduction in HPV DNA relative to vehicle (0.1% DMSO); read-out: HPV-16 IC50
row,Compound,IC50 [µM]
1,"CN(CCCN)CCCNC(=O)CCNC(=O)c1cc(NC(=O)c2cc(NC(=O)c3cc(NC(=O)c4cc(NC(=O)c5cc(NC(=O)CCCNC(=O)c6cc(NC(=O)c7cc(NC(=O)c8cc(NC(=O)c9cc(NC(=O)c%10nccn%10C)cn9C)cn8C)cn7C)cn6C)cn5C)cn4C)cn3C)cn2C)cn1C [Polyamide 1005, ImPPPPγPPPPPβTa]",> 10
2,"CN(C)CCCNC(=O)CCNC(=O)c1cc(NC(=O)c2cc(NC(=O)c3cc(NC(=O)CCNC(=O)c4cc(NC(=O)c5cc(NC(=O)c6cc(NC(=O)CCNC(=O)c7cc(NC(=O)CCNC(=O)CCCNC(=O)c8nc(NC(=O)c9cc(NC(=O)c%10cc(NC(=O)CCNC(=O)c%11cc(NC(=O)c%12nc(NC(=O)c%13cc(NC(=O)CCNC(=O)c%14cc(NC(=O)c%15cc(NC(=O)c%16nccn%16C)cn%15C)cn%14C)cn%13C)cn%12C)cn%11C)cn%10C)cn9C)cn8C)cn7C)cn6C)cn5C)cn4C)cn3C)cn2C)cn1C [Polyamide 1041, ImPPβPIPβPPIγβPβPPPβPPPβDp]",> 10
3,"CN(C)CCCNC(=O)CCNC(=O)c1cc(NC(=O)c2cc(NC(=O)c3cc(NC(=O)c4cc(NC(=O)CCCNC(=O)c5cc(NC(=O)c6nc(NC(=O)CCNC(=O)c7nccn7C)cn6C)cn5C)cn4C)cn3C)cn2C)cn1C [Polyamide 1015, ImβIPγPPPPβDp]",> 10
4,"CN(C)CCCNC(=O)c1cc(NC(=O)c2cc(NC(=O)CCNC(=O)c3cc(NC(=O)c4cc(NC(=O)c5cc(NC(=O)CCNC(=O)c6cc(NC(=O)c7cc(NC(=O)CCCNC(=O)CCNC(=O)c8cc(NC(=O)c9cc(NC(=O)CCNC(=O)c%10cc(NC(=O)c%11cc(NC(=O)c%12cc(NC(=O)c%13nccn%13C)cn%12C)cn%11C)cn%10C)cn9C)cn8C)cn7C)cn6C)cn5C)cn4C)cn3C)cn2C)cn1C [Polyamide 1056, ImPPPβPPβγPPβPPPβPPDp]",> 10
5,"CN(C)CCCNC(=O)CCNC(=O)c1cc(NC(=O)c2cc(NC(=O)c3cc(NC(=O)c4cc(NC(=O)CCCNC(=O)c5nc(NC(=O)c6cc(NC(=O)c7cc(NC(=O)c8nccn8C)cn7C)cn6C)cn5C)cn4C)cn3C)cn2C)cn1C [Polyamide 1011, ImPPIγPPPPβDp]",> 10
6,ImPPPPγPPPPPβTa-FITC [Polyamide 1007],> 10
7,"CN(C)CCCNC(=O)CCNC(=O)c1cc(NC(=O)c2cc(NC(=O)c3cc(NC(=O)c4cc(NC=O)cn4C)cn3C)cn2C)cn1C [Polyamide 1038, OHC-PPPPβDp]",> 10
8,"CN(C)CCCNC(=O)CCNC(=O)c1cc(NC(=O)c2cc(NC(=O)c3cc(NC(=O)CCNC(=O)c4cc(NC(=O)c5cc(NC(=O)c6cc(NC(=O)CCCNC(=O)c7cc(NC(=O)c8cc(NC(=O)CCNC(=O)c9cc(NC(=O)c%10cc(NC(=O)c%11cc(NC(=O)c%12nccn%12C)cn%11C)cn%10C)cn9C)cn8C)cn7C)cn6C)cn5C)cn4C)cn3C)cn2C)cn1C [Polyamide 1002, ImPPPβPPγPPPβPPPβDp]",> 10
9,"CN(C)CCCNC(=O)CCNC(=O)CCNC(=O)c1cc(NC(=O)c2cc(NC(=O)c3cc(NC(=O)CCNC(=O)c4cc(NC(=O)c5cc(NC(=O)c6cc(NC(=O)CCCNC(=O)c7cc(NC(=O)c8cc(NC(=O)c9cc(NC(=O)CCNC(=O)c%10cc(NC(=O)c%11cc(NC(=O)c%12cc(NC(=O)c%13nccn%13C)cn%12C)cn%11C)cn%10C)cn9C)cn8C)cn7C)cn6C)cn5C)cn4C)cn3C)cn2C)cn1C [Polyamide 1025, ImPPPβPPPγPPPβPPPββDp]",> 10
10,"CN(C)CCCNC(=O)CCNC(=O)c1cc(NC(=O)c2cc(NC(=O)c3cc(NC(=O)c4cc(NC(=O)c5cc(NC(=O)c6cc(NC=O)cn6C)cn5C)cn4C)cn3C)cn2C)cn1C [Polyamide 1039, OHC-PPPPPPβDp]",> 10
11,"CN(C)CCCNC(=O)CCNC(=O)c1cc(NC(=O)c2nc(NC(=O)c3cc(NC(=O)c4cc(NC(=O)CCCNC(=O)c5cc(NC(=O)c6cc(NC(=O)c7cc(NC(=O)c8nccn8C)cn7C)cn6C)cn5C)cn4C)cn3C)cn2C)cn1C [Polyamide 1013, ImPPPγPPIPβDp]",> 10
12,"CN(C)CCCNC(=O)CCNC(=O)c1cc(NC(=O)c2cc(NC(=O)c3nc(NC(=O)c4cc(NC(=O)CCCNC(=O)c5nc(NC(=O)c6cc(NC(=O)c7nc(NC(=O)c8nccn8C)cn7C)cn6C)cn5C)cn4C)cn3C)cn2C)cn1C [Polyamide 1021, ImIPIγPIPPβDp]",> 10
13,"CN(C)CCCNC(=O)CCNC(=O)c1cc(NC(=O)c2cc(NC(=O)c3cc(NC(=O)c4nc(NC(=O)CCCNC(=O)c5cc(NC(=O)c6nc(NC(=O)CCNC(=O)c7nccn7C)cn6C)cn5C)cn4C)cn3C)cn2C)cn1C [Polyamide 1014, ImβIPγIPPPβDp]",> 10
14,ImPPPPγPPPPPβTa-BOFLX [Polyamide 1008],> 10
15,"CN(C)CCCNC(=O)CCNC(=O)c1cc(NC(=O)c2cc(NC(=O)c3nc(NC(=O)c4cc(NC(=O)c5nc(NC(=O)CCCNC(=O)c6cc(NC(=O)c7nc(NC(=O)c8cc(NC(=O)c9cc(NC(=O)c%10nccn%10C)cn9C)cn8C)cn7C)cn6C)cn5C)cn4C)cn3C)cn2C)cn1C [Polyamide 1019, ImPPIPγIPIPPβDp]",> 10
16,"CN(CCCN)CCCNC(=O)CCNC(=O)c1cc(NC(=O)c2cc(NC(=O)c3cc(NC(=O)c4cc(NC(=O)c5cc(NC(=O)[C@H](N)CCNC(=O)c6cc(NC(=O)c7cc(NC(=O)c8cc(NC(=O)c9cc(NC(=O)c%10nccn%10C)cn9C)cn8C)cn7C)cn6C)cn5C)cn4C)cn3C)cn2C)cn1C [Polyamide 1006, ImPPPPγNH2PPPPPβTa]",> 10
17,"CN(C)CCCNC(=O)CCNC(=O)c1cc(NC(=O)c2cc(NC(=O)c3cc(NC(=O)c4nc(NC(=O)CCCNC(=O)c5cc(NC(=O)c6nc(NC(=O)c7nc(NC(=O)c8nccn8C)cn7C)cn6C)cn5C)cn4C)cn3C)cn2C)cn1C [Polyamide 1012, ImIIPγIPPPβDp]",> 10
18,"CN(C)CCCNC(=O)CCNC(=O)c1cc(NC(=O)c2cc(NC(=O)c3cc(NC(=O)c4cc(NC(=O)c5cc(NC(=O)CCCNC(=O)c6cc(NC(=O)c7nc(NC(=O)c8nc(NC(=O)CCNC(=O)c9nccn9C)cn8C)cn7C)cn6C)cn5C)cn4C)cn3C)cn2C)cn1C [Polyamide 1016, ImβIIPγPPPPPβDp]",> 10
19,"CN(C)CCCNC(=O)CCNC(=O)c1cc(NC(=O)c2nc(NC(=O)c3cc(NC(=O)c4cc(NC(=O)c5nc(NC(=O)CCCNC(=O)c6cc(NC(=O)c7cc(NC(=O)c8nc(NC(=O)CCNC(=O)c9nccn9C)cn8C)cn7C)cn6C)cn5C)cn4C)cn3C)cn2C)cn1C [Polyamide 1018, ImβIPPγIPPIPβDp]",> 10
20,"CN(C)CCCNC(=O)CCNC(=O)c1cc(NC(=O)c2cc(NC(=O)c3cc(NC(=O)c4cc(NC(=O)c5cc(NC(=O)CCCNC(=O)c6cc(NC(=O)c7cc(NC(=O)c8cc(NC(=O)c9cc(NC(=O)c%10nccn%10C)cn9C)cn8C)cn7C)cn6C)cn5C)cn4C)cn3C)cn2C)cn1C [Polyamide 1010, ImPPPPγPPPPPβDp]",> 10
21,"CN(C)CCCNC(=O)CCNC(=O)c1cc(NC(=O)c2nc(NC(=O)c3nc(NC(=O)c4cc(NC(=O)CCCNC(=O)c5nc(NC(=O)c6cc(NC(=O)c7cc(NC(=O)c8nccn8C)cn7C)cn6C)cn5C)cn4C)cn3C)cn2C)cn1C [Polyamide 1017, ImPPIγPIIPβDp]",> 10
